Experimental data taken from patent publication US20230202997A1, “CHROMANOL, QUINONE OR HYDROQUINONE COMPOUNDS FOR TREATMENT OF SEPSIS” (Sulfateq B.V., priority 2020, published 2023).

Columns and labels:
IL-6 mRNA expression = experiment: Inhibition of LPS-induced IL-6 mRNA expression in NRK52E; assay type: cell-based, Rat; conditions: 10 μM for 30 min, then LPS 24 hours
Procedure: Rat kidney epithelial cells (ATCC #CRL-1571) were maintained in DMEM medium containing 10% fetal bovine serum, and 1% Penicillin-Streptomycin solution (Sigma-Aldrich). NRK52E cells were passaged by trypsinization when the cultures reached a confluency of 70%. For all experiments, NRK52E cells were seeded at 0.6·10^5 cells/cm^2 and allowed to adhere for 24 hours.
(§1) HUVEC and NRK52E cells were pre-incubated with SUL compounds (10 μM) for 30 min and subsequently exposed to LPS for 24 hours under standard culture conditions. Cells were lysed in triZOL reagens (Invitrogen) and total RNA isolated according to manufacturers' instruction. 1 μg total RNA per sample was reverse transcribed using the FirstAid Reverse Transcription Kit (ThermoFisher). Copy-DNA equivalents of 5 ng total RNA were amplified on a ViiA7 Real-time PCR system (ThermoFisher, Waltham, Mass.) using iTaq Universal SYBR Green Supermix (Bio-Rad, Hercules, Calif.) and primers specific for tumor necrosis factor alpha, interleukin 1 beta, interleukin-6 and beta actin as loading control. Amplification was performed for 40 cycles of 95° C. for 30 s, 60° C. for 1 min. Relative mRNA expression was calculated as 2^−(Cq^gene^−Cq^reference^) and normalized to unstimulated control cells (100% inhibition) and vehicle-treated and LPS exposed cells (0% inhibition). The following primers were used: […]

HUVEC [1] = experiment: HUVEC cell survival after 48 hours LPS (Cyquant); assay type: cell-based, Human; conditions: 48 hours with LPS, SUL-138 pre-incubation
Procedure: (§2) Human Umbilical Vein Endothelial cells (HUVEC) were obtained from the RuG/UMCG Endothelial Cell Facility. Primary isolates of umbilical cords were mixed and subsequently cultured on HUVEC culture medium, consisted of RPMI 1640 (Lonza, art.nr. BE12-115F) supplemented with 20% heat-inactivated fetal calf serum (ThermoFisher Scientific, art.nr. 10082147), 2 mM 1-glutamine (Life Technologies art.nr. 25030), 5 U/ml heparin (Leo Pharmaceutical Products), 1% Penicillin/Streptomycin (Sigma-Aldrich art.nr. P4333), and 50 μg/ml EC growth factor supplement from (Sigma-Aldrich, art.nr. E2759).
(§3) Primary HUVECs were cultured in 75-cm2 tissue culture flasks (Corning, art.nr. 430720U) at 37° C. under 5% CO2/95% air. HUVECs were used for experiments up to passage 8. Experiments were performed in 6-well (Corning art.nr. 3506) or 96-well culture plates (Corning, art.nr. 3596), at 80% confluency. Cells were stimulated with LPS E. coli 0111:B4 (Sigma-Aldrich, art.nr. L2630) in different concentrations. Cells were detached with trypsin (Sigma-Aldrich, art.nr. 25300054). All compounds were dissolved in Hanks Balanced Salt Solution (Lonza, art.nr. 10-527F).
(§4) HUVECs were pre-incubated with SUL-138 in an amount of 10 microgram/ml, which was added one hour prior to LPS-stimulation. Such pre-incubation is the standard in in vitro models.

NO production in HUVEC = experiment: Endothelial NO production (nitrate in conditioned medium), basal and after LPS; assay type: cell-based, Human; conditions: 10 μM pre-treatment, LPS 100 ng/ml for 24 hours
Procedure: (§5) Human Umbilical Cord Endothelial Cells (HUVEC, Lonza CC-2519) were maintained on 1% gelatin-coated culture flasks in RPMI1640 medium containing 20% fetal bovine serum, 2 mM Glutamine (Sigma-Aldrich), 1% Penicillin-Streptomycin solution (Sigma-Aldrich) and 50 μg/ml Bovine Pituitary Extract (Invitrogen). HUVEC were passaged by trypsinization when the cultures reach a confluency of 70%. For all experiments, HUVEC were seeded at 0.6·10^5 cells/cm^2 and allowed to adhere for 24 hours.
Cellular production of NO was approximated by measuring nitrate concentrations in culture media using the Measure-IT™ High-Sensitivity Nitrite Assay Kit (#M36051, ThermoFisher) according to manufacturer's instructions. […] Therefore, nitrate concentrations in conditioned media are a good approximate to assess cellular NO production. 50 μl conditioned medium derived from a single 96-wells plate well was used per assay and normalized against protein concentration. All experiments were performed in quadruplicate.
Endotoxins suppress endothelial NO production by limiting the activity of eNOS. HUVEC were pre-treated with vehicle (DMSO), BN-80933, SUL-138, or SUL-150 or (all 10 μM) prior to endotoxin (LPS 100 ng/ml) exposure for 24 hours. The nitrate levels in the conditioned medium from endothelial cells exposed to LPS averaged at 160 pmol/mg protein (˜33% reduction versus non LPS exposed HUVEC, p=0.002), which was lower than basal control levels. BN-80933 further suppressed the nitrate levels in the conditioned medium (FIG. 7A) to an average of 90 pmol/mg protein (p=0.008).

IL-1β mRNA expression = experiment: Inhibition of LPS-induced IL-1β mRNA expression in HUVEC; assay type: cell-based, Human; conditions: 10 μM for 30 min, then LPS 24 hours
Procedure: as §5, §1

HUVEC [2] = experiment: LPS-challenged HUVEC respiration (uncoupled state, CCCP); assay type: cell-based, Human; conditions: 10 ug/ml LPS, SUL-138 added one hour prior to LPS
Procedure: as §2, §3, §4

Cc1c(C)c2c(c(C)c1O)CC[C@@](C)(C(=O)N1CCN(CCO)CC1)O2 [SUL-138, (S)-(6-hydroxy-2,5,7,8-tetramethylchroman-2-yl)(4-(2-hydroxyethyl)piperazin-1-yl)methanone]
inhibition of LPS-induced mRNA expression of IL-6 (IL-6 mRNA expression): 65.3 ± 7.6 % | cell survival (Cyquant) (HUVEC [1]): restores cell survival after 48 hours | nitrate levels in the conditioned medium after LPS (NO production in HUVEC): mitigated the LPS-induced reduction in nitrate levels and their levels did not change from basal nitrate level | inhibition of LPS-induced mRNA expression of IL-1β (IL-1β mRNA expression): 76.3 ± 7.9 % | uncoupled respiration (CCCP) (HUVEC [2]): almost restores the uncoupled respiration
